Results reported in the supplement of paper PMC10307832.

How the values were obtained:
Assay in all cases: relative viability (nuclei count vs DMSO), 5 days (fraction); higher = more cells survive
NCI-H3122 = system: NCI-H3122
How it was run: (§1)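 Relative viability equals treated-well nuclei counts divided by vehicle-well nuclei counts. Counts came from 4× images of lung cancer cell lines grown in 1536-well plates for 5 days after pin-tool dosing on the day after seeding. Dosing used one drug alone or a fixed anchor-drug dose plus five library-drug doses (not always all listed) in √10 steps, and values are medians of duplicate plates.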

NCI-H727 = system: NCI-H727
How it was run: as §1

NCI-H838 = system: NCI-H838
How it was run: as §1

NCI-H23 = system: NCI-H23
How it was run: as §1

NCI-H1993 = system: NCI-H1993
How it was run: as §1

EMC-BAC-2 = system: EMC-BAC-2
How it was run: as §1

NCI-H596 = system: NCI-H596
How it was run: as §1

NCI-H647 = system: NCI-H647
How it was run: as §1

LCLC-103H = system: LCLC-103H
How it was run: as §1

BEN = system: BEN
How it was run: as §1

NCI-H2087 = system: NCI-H2087
How it was run: as §1

NCI-H441 = system: NCI-H441
How it was run: as §1

NCI-H2347 = system: NCI-H2347
How it was run: as §1

HCC-44 = system: HCC-44
How it was run: as §1

NCI-H2126 = system: NCI-H2126
How it was run: as §1

NCI-H2023 = system: NCI-H2023
How it was run: as §1

NCI-H650 = system: NCI-H650
How it was run: as §1

201T = system: 201T
How it was run: as §1

LOU-NH91 = system: LOU-NH91
How it was run: as §1

HARA = system: HARA
How it was run: as §1

SMILES: CCN(CC)CCCCNc1ncc2cc(-c3cc(OC)cc(OC)c3)c(NC(=O)NC(C)(C)C)nc2n1 + C[C@@H](Oc1cc(-c2cnn(C3CCNCC3)c2)cnc1N)c1c(Cl)ccc(F)c1Cl [Crizotinib] (partner 1 µM)
- relative viability (NCI-H3122; first compound 0.01 µM): 0.273
- relative viability (NCI-H3122; first compound 0.03162 µM): 0.282
- relative viability (NCI-H3122; first compound 0.1 µM): 0.317
- relative viability (NCI-H3122; first compound 0.3162 µM): 0.291
- relative viability (NCI-H3122; first compound 1 µM): 0.279
- relative viability (NCI-H727; first compound 0.01 µM): 0.829
- relative viability (NCI-H727; first compound 0.03162 µM): 0.923
- relative viability (NCI-H727; first compound 0.1 µM): 1.03
- relative viability (NCI-H727; first compound 0.3162 µM): 1.06
- relative viability (NCI-H727; first compound 1 µM): 0.837
- relative viability (NCI-H838; first compound 0.01 µM): 0.919
- relative viability (NCI-H838; first compound 0.03162 µM): 0.84
- relative viability (NCI-H838; first compound 0.1 µM): 0.955
- relative viability (NCI-H838; first compound 0.3162 µM): 0.79
- relative viability (NCI-H838; first compound 1 µM): 0.552
- relative viability (NCI-H23; first compound 0.01 µM): 0.537
- relative viability (NCI-H23; first compound 0.03162 µM): 0.568
- relative viability (NCI-H23; first compound 0.1 µM): 0.496
- relative viability (NCI-H23; first compound 0.3162 µM): 0.536
- relative viability (NCI-H23; first compound 1 µM): 0.511
- relative viability (NCI-H1993; first compound 0.01 µM): 0.875
- relative viability (NCI-H1993; first compound 0.03162 µM): 0.974
- relative viability (NCI-H1993; first compound 0.1 µM): 0.875
- relative viability (NCI-H1993; first compound 0.3162 µM): 0.985
- relative viability (NCI-H1993; first compound 1 µM): 0.783
- relative viability (EMC-BAC-2; first compound 0.01 µM): 0.851
- relative viability (EMC-BAC-2; first compound 0.03162 µM): 0.761
- relative viability (EMC-BAC-2; first compound 0.1 µM): 0.85
- relative viability (EMC-BAC-2; first compound 0.3162 µM): 0.839
- relative viability (EMC-BAC-2; first compound 1 µM): 0.735
- relative viability (NCI-H596; first compound 0.01 µM): 0.918
- relative viability (NCI-H596; first compound 0.03162 µM): 1.04
- relative viability (NCI-H596; first compound 0.1 µM): 1.02
- relative viability (NCI-H596; first compound 0.3162 µM): 0.956
- relative viability (NCI-H596; first compound 1 µM): 0.894
- relative viability (NCI-H647; first compound 0.01 µM): 1.06
- relative viability (NCI-H647; first compound 0.03162 µM): 1.08
- relative viability (NCI-H647; first compound 0.1 µM): 1.53
- relative viability (NCI-H647; first compound 0.3162 µM): 1.3
- relative viability (NCI-H647; first compound 1 µM): 0.774
- relative viability (LCLC-103H; first compound 0.01 µM): 1.11
- relative viability (LCLC-103H; first compound 0.03162 µM): 1.04
- relative viability (LCLC-103H; first compound 0.1 µM): 1.07
- relative viability (LCLC-103H; first compound 0.3162 µM): 1.05
- relative viability (LCLC-103H; first compound 1 µM): 1.05
- relative viability (BEN; first compound 0.01 µM): 1.05
- relative viability (BEN; first compound 0.03162 µM): 0.85
- relative viability (BEN; first compound 0.1 µM): 0.867
- relative viability (BEN; first compound 0.3162 µM): 0.835
- relative viability (BEN; first compound 1 µM): 0.699
- relative viability (NCI-H2087; first compound 0.01 µM): 0.925
- relative viability (NCI-H2087; first compound 0.03162 µM): 0.967
- relative viability (NCI-H2087; first compound 0.1 µM): 1.01
- relative viability (NCI-H2087; first compound 0.3162 µM): 0.958
- relative viability (NCI-H2087; first compound 1 µM): 1.06
- relative viability (NCI-H441; first compound 0.01 µM): 0.676
- relative viability (NCI-H441; first compound 0.03162 µM): 0.897
- relative viability (NCI-H441; first compound 0.1 µM): 0.73
- relative viability (NCI-H441; first compound 0.3162 µM): 0.886
- relative viability (NCI-H441; first compound 1 µM): 0.762
- relative viability (NCI-H2347; first compound 0.01 µM): 0.766
- relative viability (NCI-H2347; first compound 0.03162 µM): 0.62
- relative viability (NCI-H2347; first compound 0.1 µM): 0.677
- relative viability (NCI-H2347; first compound 0.3162 µM): 0.63
- relative viability (NCI-H2347; first compound 1 µM): 0.793
- relative viability (HCC-44; first compound 0.01 µM): 0.775
- relative viability (HCC-44; first compound 0.03162 µM): 0.855
- relative viability (HCC-44; first compound 0.1 µM): 0.853
- relative viability (HCC-44; first compound 0.3162 µM): 0.971
- relative viability (HCC-44; first compound 1 µM): 0.946
- relative viability (NCI-H2126; first compound 0.01 µM): 1.08
- relative viability (NCI-H2126; first compound 0.03162 µM): 0.992
- relative viability (NCI-H2126; first compound 0.1 µM): 1.06
- relative viability (NCI-H2126; first compound 0.3162 µM): 1.08
- relative viability (NCI-H2126; first compound 1 µM): 1.04
- relative viability (NCI-H2023; first compound 0.01 µM): 0.646
- relative viability (NCI-H2023; first compound 0.03162 µM): 0.627
- relative viability (NCI-H2023; first compound 0.1 µM): 0.639
- relative viability (NCI-H2023; first compound 0.3162 µM): 0.725
- relative viability (NCI-H2023; first compound 1 µM): 0.655
- relative viability (NCI-H650; first compound 0.01 µM): 0.694
- relative viability (NCI-H650; first compound 0.03162 µM): 0.618
- relative viability (NCI-H650; first compound 0.1 µM): 0.863
- relative viability (NCI-H650; first compound 0.3162 µM): 0.743
- relative viability (NCI-H650; first compound 1 µM): 0.606
- relative viability (201T; first compound 0.01 µM): 1.06
- relative viability (201T; first compound 0.03162 µM): 1.09
- relative viability (201T; first compound 0.1 µM): 1.06
- relative viability (201T; first compound 0.3162 µM): 1.05
- relative viability (201T; first compound 1 µM): 1.03
- relative viability (LOU-NH91; first compound 0.01 µM): 0.733
- relative viability (LOU-NH91; first compound 0.03162 µM): 0.723
- relative viability (LOU-NH91; first compound 0.1 µM): 0.776
- relative viability (LOU-NH91; first compound 0.3162 µM): 0.747
- relative viability (LOU-NH91; first compound 1 µM): 0.725
- relative viability (HARA; first compound 0.01 µM): 1.19
- relative viability (HARA; first compound 0.03162 µM): 1.03
- relative viability (HARA; first compound 0.1 µM): 1.26
- relative viability (HARA; first compound 0.3162 µM): 1.17
- relative viability (HARA; first compound 1 µM): 0.816
